Data published in paper PMC13011345, “Computational and experimental identification of potential neutralizing peptides derived from human ACE2 against SARS-CoV-2 infection” (Journal of Virology, 2026).
Ends that are not written are not given here.

Tested on: pseudotyped SARS-CoV-2 particle (VSV-SARS-CoV-2-S virus, Wuhan-Hu-1 spike) infecting BHK21-hACE2 cells
Conditions: 1 h

With AWDLGKGDFRIL [ACE348–359] the IC50 was 31.2 nM.

Work on HIQYDMAYAAQPFLLRNG [ACE378–395] yielded an IC50 of 3.8 nM.

With QKLFNMLRLGKS [ACE552–563] the IC50 was 12.5 nM.

With LPNMTQGFWENSML [ACE320–333] the IC50 was 43.9 nM.
